Values quoted from earlier work as cited in US8362077B2, “Chemical compositions for skin care emulsions and heavy duty hand cleansers” (Pibed Limited, priority 2008, dated 2013).
Like-named read-outs stand apart in the source and are kept apart here.

What was measured:
Lactobacillus fermentum = details: flow cytometry
Staphylococcus aureus = details: low concentrations (0.5 to 2 mM)
Microsporum gypseum [1] = details: M. gypseum
Microsporum gypseum [2] = details: 10% in Vaseline petroleum jelly, topical, daily for 3 weeks

SMILES | Intracellular accumulation of ethidium bromide by live cells (Lactobacillus fermentum) | Susceptibility to ciprofloxacin, clindamycin, erythromycin, gentamicin, tetracycline and vancomycin (Staphylococcus aureus) | MIC (Microsporum gypseum [1]; positive control) | MIC (Microsporum gypseum [1]) | Histopathologic examination of skin tissues (Microsporum gypseum [2]) | Skin lesion scoring (Microsporum gypseum [2]) | Sensitization to polymyxin B (Escherichia coli) | Hair culture test (Microsporum gypseum [2])
CC(C)=CCC/C(C)=C/CC1CCCC1=O (centres unmarked) [apritone] | promoted the intracellular accumulation | enhanced the susceptibility |  |  |  |  |  | 
CC(C)=CCC[C@](C)(O)C1CC=C(C)CC1 (some centres unmarked) [bisabolol] | promoted the intracellular accumulation | enhanced the susceptibility |  |  |  |  |  | 
Clc1ccc(COC(Cn2ccnc2)c2ccc(Cl)cc2Cl)cc1 (centres unmarked) [econazole] |  |  | 4 to 16 µg/mL |  |  |  |  | 
C=CCc1ccc(O)c(OC)c1 [eugenol] |  |  |  | 0.01-0.03% | lower degree of hyperkeratosis and inflammatory cell infiltration than the positive control | clinically effective at improving the lesion during the first week of application |  | 
CC(C)=CCCC(C)=CCCC(C)=CCO [farnesol] | promoted the intracellular accumulation |  |  |  |  |  | sensitized Escherichia coli to polymyxin B | 
C=CC(C)(O)CCC=C(C)CCC=C(C)C (centres unmarked) [nerolidol, 3,7,11-trimethyl-1,6,10-dodecatrien-3-ol] | promoted the intracellular accumulation | enhanced the susceptibility |  | 0.5-2% | lower degree of hyperkeratosis and inflammatory cell infiltration than the positive control | clinically effective at improving the lesion during the first week of application | sensitized Escherichia coli to polymyxin B | improved the skin lesions
